Calls of active or inactive are those of the source. Rule as the data show it, for most assays here: actives have a measured IC50 and inactives only a lower limit.
How the values were obtained:
Format in all cases: functional
[1] = molecular target: T1, Sentrin-specific protease 7 (Homo sapiens, UniProt Q9BQF6);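 also: Luminescence-based dose-response confirmation of ultra-high-throughput screening hits, measuring inhibition of SENP7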
T1 sequence (Q9BQF6 whole entry): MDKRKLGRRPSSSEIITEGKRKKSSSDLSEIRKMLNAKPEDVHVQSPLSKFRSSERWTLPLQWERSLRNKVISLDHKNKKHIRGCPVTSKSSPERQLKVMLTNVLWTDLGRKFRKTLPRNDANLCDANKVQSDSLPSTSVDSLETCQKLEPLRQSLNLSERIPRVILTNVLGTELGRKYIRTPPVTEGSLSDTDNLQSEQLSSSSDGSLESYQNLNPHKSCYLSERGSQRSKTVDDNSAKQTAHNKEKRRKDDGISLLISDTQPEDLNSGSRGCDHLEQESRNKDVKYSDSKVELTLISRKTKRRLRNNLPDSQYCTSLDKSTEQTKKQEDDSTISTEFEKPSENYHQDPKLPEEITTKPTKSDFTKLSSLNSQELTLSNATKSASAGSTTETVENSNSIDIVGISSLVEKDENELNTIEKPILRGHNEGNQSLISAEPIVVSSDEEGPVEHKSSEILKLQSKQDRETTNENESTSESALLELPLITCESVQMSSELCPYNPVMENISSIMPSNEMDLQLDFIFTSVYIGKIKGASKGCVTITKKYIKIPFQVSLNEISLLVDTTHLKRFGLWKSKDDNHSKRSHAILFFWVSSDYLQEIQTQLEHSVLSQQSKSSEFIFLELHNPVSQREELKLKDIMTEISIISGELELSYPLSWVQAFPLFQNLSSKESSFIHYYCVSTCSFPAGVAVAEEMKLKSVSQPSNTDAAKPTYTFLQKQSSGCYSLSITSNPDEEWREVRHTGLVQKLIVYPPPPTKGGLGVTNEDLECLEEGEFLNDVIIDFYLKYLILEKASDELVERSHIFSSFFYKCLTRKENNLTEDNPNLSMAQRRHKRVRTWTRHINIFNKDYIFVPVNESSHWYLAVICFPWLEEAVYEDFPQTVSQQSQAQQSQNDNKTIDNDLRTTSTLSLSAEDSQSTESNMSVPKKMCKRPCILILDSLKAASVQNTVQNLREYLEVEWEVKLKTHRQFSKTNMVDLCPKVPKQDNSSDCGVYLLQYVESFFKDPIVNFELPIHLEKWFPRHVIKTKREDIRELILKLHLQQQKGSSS

[2] = molecular target: T2, Sentrin-specific protease 6 (Homo sapiens, UniProt Q9GZR1);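 also: Luminescence-based dose-response confirmatory assay of SENP6 inhibition, following up an ultra-high-throughput screen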
T2 sequence (Q9GZR1 whole entry): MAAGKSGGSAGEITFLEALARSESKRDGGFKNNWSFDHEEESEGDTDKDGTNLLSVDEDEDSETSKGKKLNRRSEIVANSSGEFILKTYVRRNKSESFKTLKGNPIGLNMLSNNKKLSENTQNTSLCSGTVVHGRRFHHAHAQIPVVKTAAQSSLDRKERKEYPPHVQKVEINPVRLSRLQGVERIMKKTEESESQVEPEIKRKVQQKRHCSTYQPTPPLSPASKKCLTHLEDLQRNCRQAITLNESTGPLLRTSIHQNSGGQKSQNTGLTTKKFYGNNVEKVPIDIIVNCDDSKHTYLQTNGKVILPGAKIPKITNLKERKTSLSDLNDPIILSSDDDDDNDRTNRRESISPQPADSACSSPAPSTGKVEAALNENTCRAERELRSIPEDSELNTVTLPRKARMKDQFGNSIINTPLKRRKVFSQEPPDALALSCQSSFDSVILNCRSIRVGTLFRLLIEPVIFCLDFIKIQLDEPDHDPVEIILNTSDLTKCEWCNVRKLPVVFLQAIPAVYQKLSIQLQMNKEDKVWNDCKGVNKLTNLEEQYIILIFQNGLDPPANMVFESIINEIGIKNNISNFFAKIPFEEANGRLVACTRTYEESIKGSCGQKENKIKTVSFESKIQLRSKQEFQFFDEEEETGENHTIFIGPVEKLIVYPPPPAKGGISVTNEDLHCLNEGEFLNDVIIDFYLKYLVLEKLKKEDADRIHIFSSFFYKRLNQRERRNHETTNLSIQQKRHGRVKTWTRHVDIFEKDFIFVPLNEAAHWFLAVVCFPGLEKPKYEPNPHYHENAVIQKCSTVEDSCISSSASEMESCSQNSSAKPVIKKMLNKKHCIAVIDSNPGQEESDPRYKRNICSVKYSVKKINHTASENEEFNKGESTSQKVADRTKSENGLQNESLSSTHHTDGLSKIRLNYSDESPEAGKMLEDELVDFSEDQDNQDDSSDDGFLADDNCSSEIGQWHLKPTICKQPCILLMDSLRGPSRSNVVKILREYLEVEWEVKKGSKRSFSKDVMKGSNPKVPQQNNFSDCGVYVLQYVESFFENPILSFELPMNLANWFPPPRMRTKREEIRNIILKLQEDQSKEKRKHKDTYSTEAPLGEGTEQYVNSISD

[3] = molecular target: T3, Protein RecA (Mycobacterium tuberculosis, UniProt P9WHJ3); test: Fluorescence Cell-Free Homogeneous Dose Retest to Identify Inhibitors of RecA-Intein Splicing Activity. [Related pubchem assays (depositor defined):AID2097, AID2223, AID489010, AID492950]
T3 sequence (P9WHJ3 whole entry): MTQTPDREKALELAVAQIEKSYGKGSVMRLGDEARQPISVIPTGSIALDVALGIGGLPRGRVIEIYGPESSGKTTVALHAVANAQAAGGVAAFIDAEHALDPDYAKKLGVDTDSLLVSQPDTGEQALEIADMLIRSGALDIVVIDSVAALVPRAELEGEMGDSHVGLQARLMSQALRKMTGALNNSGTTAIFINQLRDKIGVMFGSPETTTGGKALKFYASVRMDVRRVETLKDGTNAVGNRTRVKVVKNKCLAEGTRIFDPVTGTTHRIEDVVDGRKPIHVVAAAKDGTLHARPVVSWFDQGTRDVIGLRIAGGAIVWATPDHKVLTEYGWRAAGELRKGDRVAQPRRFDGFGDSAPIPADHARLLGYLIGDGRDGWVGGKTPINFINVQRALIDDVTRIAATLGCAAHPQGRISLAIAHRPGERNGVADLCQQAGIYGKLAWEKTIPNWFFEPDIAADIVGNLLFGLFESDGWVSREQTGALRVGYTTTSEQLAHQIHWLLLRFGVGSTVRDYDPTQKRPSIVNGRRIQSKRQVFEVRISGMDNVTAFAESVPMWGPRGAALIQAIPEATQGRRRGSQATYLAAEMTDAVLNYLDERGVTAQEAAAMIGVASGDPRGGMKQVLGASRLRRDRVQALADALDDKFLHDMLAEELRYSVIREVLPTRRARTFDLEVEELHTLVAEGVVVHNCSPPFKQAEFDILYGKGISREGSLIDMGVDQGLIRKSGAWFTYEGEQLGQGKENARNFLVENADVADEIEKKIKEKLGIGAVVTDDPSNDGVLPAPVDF

Row | Structure (SMILES) | IC50 [1] | IC50 [2] | EC50 [3]
1 | COc1cc(C(=O)c2nccc3cc(OC)c(OC)cc23)c([N+](=O)[O-])cc1OC | 2.93 µM (active) | 0.936 µM (active) | 0.16 µM (active)
2 | N#Cc1c(O)nc(SCC(=O)N2c3ccccc3Sc3ccccc32)nc1-c1ccccc1 | – | – | 9.18 µM (active)
3 | c1ccc2c(Nc3nnc(-c4ccncc4)s3)cccc2c1 | 5.51 µM (active) | 10.1 µM (active) | –
